We go through ten compounds from patent US20240208997A1, “CYCLIC BENZIMIDAZOLE DERIVATIVES AS CGAS INHIBITORS” (Boehringer Ingelheim International GmbH, priority 2022, published 2024).

A value given as a limit tells only on which side of the number the result lay.

The first assay deals with IFN induction in virus-stimulated THP1 cells. In words: Human cGAS cell assay, virus-stimulated THP1-Dual cells (THP1(vir) IC50). In kind it is cell-based. The settings on record: THP-1, Table 2, compounds of WO 2020/142729, read-out: THP1(vir) IC50. The text has this:
(§1) 6.2 Method: Human cGAS Cell Assay and cGAMP Stimulated Counter Cell Assay (THP1(vir) IC50 and THP1(cGAMP) IC50)
THP1-Dual™ cells (InvivoGen #thpd-nfis) expressing IRF dependent Lucia luciferase reporter were used as basis for both assays. For the detection of cellular cGAS activity cells were stimulated by a baculovirus (pFastbac-1, Invitrogen, no coding insert) infection that delivers the cGAS enzyme stimulating double-stranded DNA (measurement of THP1(vir) IC50).
(§2) Pathway activity was monitored by measuring the Lucia luciferase activity induced by either DNA stimulated cGAS enzyme activity (measurement of THP1(vir) IC50) or by cGAMP directly (measurement of THP1(cGAMP) IC50, counter assay).
(§3) Compounds were delivered in 10 mM DMSO solution, serially diluted and transferred to the 384 well assay plate (Greiner #781201) using an Echo acoustic dispenser. Typically, 8 concentrations were used with the highest concentration at 10 μM in the final assay volume followed by ^˜1:5 dilution steps. DMSO concentration was set to 1% in the final assay volume. The 384 well assay plate contained […] (column 1-22), and DMSO in column 23 and 24.
(§4) Cells, cultivated according to manufacturer conditions, were harvested by centrifugation at 300 g/10 min and were then resuspended and diluted to 1.66E5 cells/ml in fresh cell culture medium (RPMI 1640 (Gibco #A10491-01), 10% FCS (Gibco #10500), 1× GlutaMax (Gibco #35050-061), 1× Pen/Strep solution (Gibco #15140-122), 100 μg/ml Normocin (InvivoGen #ant-nr), 100 μg/ml Zeocin (InvivoGen #ant-zn), 10 μg/ml Blasticidin S (Life Technologies #A11139-03)). The baculovirus solution was then added 1:200 (have varied according to virus batch) to the cells (measurement of THP1(vir) IC50).
(§5) 30 μL of the cell/virus-mix were added to each well of the compound plate from column 1-23 via MultiDrop Combi dispenser (5000 cells/well). In column 24, 30 μl/5000 cells/well without virus were added as a low control.
(§6) The plates were then incubated for 18 h at 37° C. in a humidified incubator.
(§7) Following that, 15 μL of QuantiLuc detection reagent (InvivoGen #rep-qlcg5) were added to each well using a MultiDrop Combi. Measurement was done immediately after the addition using an EnVision reader (US-luminescence read-mode).
(§8) Data Evaluation and Calculation:
(§9) For data evaluation and calculation, the measurement of the low control was set as 0% control and the measurement of the high control was set as 100% control. The IC50 values were calculated using the standard 4 parameter logistic regression formula. Calculation: [y=(a−d)/(1+(x/c)^b)+d], a=low value, d=high value; x=conc M; c=IC50 M; b=slope
Regarding `Cc1nc(N2CCC[C@H]2C(=O)O)c2oc3ccccc3c2n1` [Example 15, reference compound], the IC50 (usually the concentration needed to halve the response being measured) was above 17 µM.
Turning to `Cc1nc(N2C[C@@H](Cc3nn[nH]n3)C[C@H]2C(=O)O)c2oc3ccccc3c2n1` [Example 25, reference compound], the IC50 was above 17 µM.
Take `Cc1nc(N2C[C@@H](CC(=O)Nc3ccncc3)C[C@H]2C(=O)O)c2oc3ccccc3c2n1` [Example 28, reference compound]: the IC50 was above 32 µM.
Same read-out and setting: then `CC(C)(C(=O)N[C@H]1C[C@@H](C(=O)O)N(c2nc(C(F)(F)F)nc3c2oc2ccccc23)C1)c1cn[nH]c1` [Example 58, reference compound], with 21 µM; and `Cc1nc(N2C[C@@H](Nc3ccncc3)C[C@H]2C(=O)O)c2oc3ccccc3c2n1` [Example 38, reference compound], with above 17 µM.

Staying with this assay, now noted: THP-1, Table 3, Compound No. 5 of WO 2022/174012, read-out: THP1(vir) IC50.
Regarding `Cc1nc(N2C[C@@H](CC(=O)Nc3ccc(-c4ccccc4)cc3)C[C@H]2C(=O)O)c2oc3ccccc3c2n1` [Compound 5, reference compound], the IC50 was above 10 µM.

Still in this assay, the particulars now being: THP-1, running text, read-out: THP1(vir) IC50.
In the case of `Cc1nc(N2C[C@@H](Cc3nn[nH]n3)C[C@H]2C(=O)O)c2oc3ccccc3c2n1` [Example 25, reference compound], the IC50 was 17 µM.

In another assay the target is T1, cGAS (Homo sapiens, UniProt Q8N884).
T1 sequence (Q8N884 whole entry): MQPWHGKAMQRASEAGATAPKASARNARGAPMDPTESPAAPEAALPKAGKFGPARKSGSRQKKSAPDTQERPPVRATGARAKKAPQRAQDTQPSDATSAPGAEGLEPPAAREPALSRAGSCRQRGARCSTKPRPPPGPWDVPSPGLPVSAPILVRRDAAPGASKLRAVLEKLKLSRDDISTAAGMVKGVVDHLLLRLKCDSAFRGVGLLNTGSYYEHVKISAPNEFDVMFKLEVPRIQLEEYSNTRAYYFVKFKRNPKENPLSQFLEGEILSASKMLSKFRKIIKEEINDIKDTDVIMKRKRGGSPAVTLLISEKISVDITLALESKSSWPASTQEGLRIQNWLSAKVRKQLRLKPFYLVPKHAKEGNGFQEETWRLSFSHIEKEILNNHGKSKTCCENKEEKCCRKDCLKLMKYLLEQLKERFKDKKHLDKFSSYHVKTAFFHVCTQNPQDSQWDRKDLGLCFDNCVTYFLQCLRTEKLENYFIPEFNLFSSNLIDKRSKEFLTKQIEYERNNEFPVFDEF
Experiment: not given
The arrangement: HumancGAS (amino acid 1-522) with an N-terminal 6×-His-tag and SUMO-tag; 6xHis (N); SUMO (N); made in house; host or cells: E. coli BL21(DE3) pLysS. The following applies: Table 4; compounds of PCT/EP2022/062480 and PCT/EP2022/062496 and their methyl ester prodrugs; read-out: hcGAS IC50; cited from earlier work.
Take `COC(=O)[C@@H]1C[C@H](Oc2ncccc2N2CCOC3(COC3)[C@@H]2C)CN1c1nc(C(F)F)nc2c1oc1ccccc12` [P01 of PCT/EP2022/062 480]: the IC50 was above 9.96 µM.
For `COC(=O)[C@@H]1C[C@H](Oc2ncc(-c3cccnc3OC)cc2N2CCOC3(COC3)[C@@H]2C)CN1c1nc(C(F)(F)F)nc2c1oc1ccccc12` [P04 of PCT/EP2022/062 480], the IC50 was above 9.95 µM.
On to `COC(=O)[C@@H]1C[C@H](Oc2ncc(Br)cc2N2CCOC3(COC3)[C@@H]2C)CN1c1nc(C(F)(F)F)nc2c1oc1ccccc12` [P02 of PCT/EP2022/062 480], for which the IC50 was above 9.95 µM.
Consider `C[C@@H]1N(c2cc(Br)cnc2OC2C[C@@H](C(=O)O)N(c3nc(C(F)(F)F)nc4c3oc3ccccc34)C2)CCOC12COC2` (stereo partly drawn) [Ex. 1.10 of PCT/EP2022/062 480], for which the IC50 is 0.005 µM.

In another assay the target is T1, cGAS.
Experiment: not given
The settings on record: groups as on page 44/45 of WO 2020/142729; read-out: biochemical (in vitro) IC50-value, group; cited from earlier work.
For the compound `Cc1nc(N2C[C@@H](Cc3nn[nH]n3)C[C@H]2C(=O)O)c2oc3ccccc3c2n1` [Example 25, reference compound], the IC50 was below 0.1 µM.

The next assay deals with THP-1.
Experiment: not given
The following applies: page 67 and 68, Table 3 of WO 2022/174012; read-out: cellular IC50-value (IFNβ ELISA stimulated with THP-1), group; cited from earlier work. In general terms: In an ELISA, binding on a coated surface is turned into a signal by an enzyme label.
With `Cc1nc(N2C[C@@H](CC(=O)Nc3ccc(-c4ccccc4)cc3)C[C@H]2C(=O)O)c2oc3ccccc3c2n1` [Compound 5, reference compound], the half-inhibitory concentration (IC50) was below 1 µM.

The target in a further assay is T1, cGAS.
Experiment: not given
The following applies: page 65, Table 2 of WO 2022/174012; read-out: enzymatic IC50-value, group; cited from earlier work.
Regarding `Cc1nc(N2C[C@@H](CC(=O)Nc3ccc(-c4ccccc4)cc3)C[C@H]2C(=O)O)c2oc3ccccc3c2n1` [Compound 5, reference compound], the IC50 was 0.05 to 0.1 µM.

Another assay has as its system IFN induction in dsDNA-stimulated human whole blood.
Experiment: not given
The following applies: Table 4; compounds of PCT/EP2022/062480 and PCT/EP2022/062496 and their methyl ester prodrugs; read-out: hWB IC50; cited from earlier work.
Consider `COC(=O)[C@@H]1C[C@H](Oc2ncccc2N2CCOC3(COC3)[C@@H]2C)CN1c1nc(C(F)F)nc2c1oc1ccccc12` [P01 of PCT/EP2022/062 480], for which the IC50 was 1.31 µM.
`COC(=O)[C@@H]1C[C@H](Oc2ncc(-c3cccnc3OC)cc2N2CCOC3(COC3)[C@@H]2C)CN1c1nc(C(F)(F)F)nc2c1oc1ccccc12` [P04 of PCT/EP2022/062 480]: the IC50 was 2.75 µM.
`COC(=O)[C@@H]1C[C@H](Oc2ncc(Br)cc2N2CCOC3(COC3)[C@@H]2C)CN1c1nc(C(F)(F)F)nc2c1oc1ccccc12` [P02 of PCT/EP2022/062 480]: the IC50 is 5.33 µM.
In the case of `C[C@@H]1N(c2cc(Br)cnc2OC2C[C@@H](C(=O)O)N(c3nc(C(F)(F)F)nc4c3oc3ccccc34)C2)CCOC12COC2` (stereo partly drawn) [Ex. 1.10 of PCT/EP2022/062 480], the IC50 was 0.033 µM.

The next assay concerns IFN induction in cGAMP-stimulated THP1 cells. Nature of the assay: cGAMP stimulated counter cell assay in THP1-Dual cells (THP1(cGAMP) IC50). The assay is classed as cell-based, human. The settings on record: Homo sapiens, THP-1, Table 2; compounds of WO 2020/142729; read-out: THP1(cGAMP) IC50.
From the text: as §1
For the counter assay, cells were stimulated by cGAMP (SigmaAldrich #SML1232) to activate the identical pathway independent and directly downstream of cGAS (measurement of THP1(cGAMP) IC50).
as §2, §3, §4, §5, §6, §7, §8, §9
As to `Cc1nc(N2CCC[C@H]2C(=O)O)c2oc3ccccc3c2n1` [Example 15, reference compound], the IC50 was above 17 µM.
The same measure, in the same setting: to `Cc1nc(N2C[C@@H](Cc3nn[nH]n3)C[C@H]2C(=O)O)c2oc3ccccc3c2n1` [Example 25, reference compound] belongs above 17 µM.
On the same count and under the same terms, to `Cc1nc(N2C[C@@H](Nc3ccncc3)C[C@H]2C(=O)O)c2oc3ccccc3c2n1` [Example 38, reference compound] belongs above 17 µM.

The assay is the same for the next values; noted with them: Homo sapiens, THP-1; Table 3; Compound No. 5 of WO 2022/174012; read-out: THP1(cGAMP) IC50.
On to `Cc1nc(N2C[C@@H](CC(=O)Nc3ccc(-c4ccccc4)cc3)C[C@H]2C(=O)O)c2oc3ccccc3c2n1` [Compound 5, reference compound], for which the IC50 was above 10 µM.

For the next assay the test system is unchanged.
Experiment: not given
The following applies: Table 4; compounds of PCT/EP2022/062480 and PCT/EP2022/062496 and their methyl ester prodrugs; cited from earlier work.
On to `COC(=O)[C@@H]1C[C@H](Oc2ncccc2N2CCOC3(COC3)[C@@H]2C)CN1c1nc(C(F)F)nc2c1oc1ccccc12` [P01 of PCT/EP2022/062 480], for which the IC50 is 26.1 µM.
With `COC(=O)[C@@H]1C[C@H](Oc2ncc(-c3cccnc3OC)cc2N2CCOC3(COC3)[C@@H]2C)CN1c1nc(C(F)(F)F)nc2c1oc1ccccc12` [P04 of PCT/EP2022/062 480], the IC50 is above 16.6 µM.
Regarding `COC(=O)[C@@H]1C[C@H](Oc2ncc(Br)cc2N2CCOC3(COC3)[C@@H]2C)CN1c1nc(C(F)(F)F)nc2c1oc1ccccc12` [P02 of PCT/EP2022/062 480], the IC50 is 17.1 µM.
Turning to `C[C@@H]1N(c2cc(Br)cnc2OC2C[C@@H](C(=O)O)N(c3nc(C(F)(F)F)nc4c3oc3ccccc34)C2)CCOC12COC2` (stereo partly drawn) [Ex. 1.10 of PCT/EP2022/062 480], the IC50 was 16.1 µM.

For a further assay, the system named is IFN induction in virus-stimulated THP1 cells.
Experiment: not given
The following applies: Table 4; compounds of PCT/EP2022/062480 and PCT/EP2022/062496 and their methyl ester prodrugs; read-out: THP1(vir) IC50; cited from earlier work.
For `COC(=O)[C@@H]1C[C@H](Oc2ncccc2N2CCOC3(COC3)[C@@H]2C)CN1c1nc(C(F)F)nc2c1oc1ccccc12` [P01 of PCT/EP2022/062 480], the IC50 is 0.358 µM.
On to `COC(=O)[C@@H]1C[C@H](Oc2ncc(-c3cccnc3OC)cc2N2CCOC3(COC3)[C@@H]2C)CN1c1nc(C(F)(F)F)nc2c1oc1ccccc12` [P04 of PCT/EP2022/062 480], for which the IC50 was 0.067 µM.
For `COC(=O)[C@@H]1C[C@H](Oc2ncc(Br)cc2N2CCOC3(COC3)[C@@H]2C)CN1c1nc(C(F)(F)F)nc2c1oc1ccccc12` [P02 of PCT/EP2022/062 480], the IC50 was 0.444 µM.
Regarding `C[C@@H]1N(c2cc(Br)cnc2OC2C[C@@H](C(=O)O)N(c3nc(C(F)(F)F)nc4c3oc3ccccc34)C2)CCOC12COC2` (stereo partly drawn) [Ex. 1.10 of PCT/EP2022/062 480], the IC50 was 0.091 µM.
